Tested on: T47D (PIK3CA H1047R) cells
Assay: pS473 AKT assay with 2.5% FBS, T47D cells
Type: cell-based
Details: Homo sapiens, pSer473 AKT, DMEM with 2.5% FBS, 2 h treatment, read-out: T47D_IC50
Summary of the method: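 In-cell chemiluminescent ELISA of AKT Ser473 phosphorylation, using anti-pSer473 primary and HRP secondary antibodies on fixed cells. T47D (PIK3CA H1047R) cells had 2 h of compound treatment in DMEM containing 2.5% FBS; IC50 derived from dose-response.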

| SMILES | IC50 [nM] |
| --- | --- |
| Cc1cc(C(C)Nc2ccc(Cl)nc2N2CCN3C(=O)OCC3C2)c2c(c1)c(=O)n1c3c2cnn3CCC1 (stereo not shown) [Compound 322, 7-(6-chloro-3-((1-(8-methyl-6-oxo-4,5-dihydro-3H,6H-2,2a,5a-triazaaceanthrylen-10-yl)ethyl)amino)pyridin-2-yl)hexahydro-3H-oxazolo[3,4-a]pyrazin-3-one] | < 1000 |
| Cc1cc(C(C)Nc2ccc(Cl)nc2-c2cnn3c2CN(C)CC3)c2c(c1)c(=O)n1c3c2cnn3CCC1 (stereo not shown) [Compound 323, 10-(1-((6-Chloro-2-(5-methyl-4,5,6,7-tetrahydropyrazolo[1,5-a]pyrazin-3-yl)pyridin-3-yl)amino)ethyl)-8-methyl-4,5-dihydro-3H,6H-2,2a,5a-triazaaceanthrylen-6-one] | < 1000 |
| Cc1cc(C(C)Nc2ccc(Cl)nc2-c2ccc(CN(C)C)nc2)c2c(c1)c(=O)n1c3c2cnn3CCC1 (stereo not shown) [Compound 324, 10-(1-((6-Chloro-6′-((dimethylamino)methyl)-[2,3′-bipyridin]-3-yl)amino)ethyl)-8-methyl-4,5-dihydro-3H,6H-2,2a,5a-triazaaceanthrylen-6-one] | < 1000 |
| Cc1cc(C(C)Nc2ccc(C)nc2-c2noc(=O)[nH]2)c2c(c1)c(=O)n1c3c2cnn3C(C)CC1 (stereo not shown) [Compound 325, 3-(3-((1-(3,8-Dimethyl-6-oxo-4,5-dihydro-3H,6H-2,2a,5a-triazaaceanthrylen-10-yl)ethyl)amino)-6-methylpyridin-2-yl)-1,2,4-oxadiazol-5(4H)-one] | < 1000 |
| Cc1cc(C(C)Nc2ccc(C)nc2-c2nnn(C)n2)c2c(c1)c(=O)n1c3c2cnn3CCC1 (stereo not shown) [Compound 326, 8-Methyl-10-(1-((6-methyl-2-(2-methyl-2H-tetrazol-5-yl)pyridin-3-yl)amino)ethyl)-4,5-dihydro-3H,6H-2,2a,5a-triazaaceanthrylen-6-one] | < 1000 |
| CCn1ncc2c3c(C(C)Nc4ccc(C)nc4-c4noc(=O)[nH]4)cc(C)cc3c(=O)n(C)c21 (stereo not shown) [Compound 327, 3-(3-((1-(3-Ethyl-4,7-dimethyl-5-oxo-4,5-dihydro-3H-pyrazolo[3,4-c]isoquinolin-9-yl)ethyl)amino)-6-methylpyridin-2-yl)-1,2,4-oxadiazol-5(4H)-one] | < 1000 |
| Cc1cc(C(CO)Nc2ccc(Cl)nc2-c2ncn(C)n2)c2c(c1)c(=O)n1c3c2cnn3CCC1 (stereo not shown) [Compound 328, 10-(1-((6-Chloro-2-(1-methyl-1H-1,2,4-triazol-3-yl)pyridin-3-yl)amino)-2-hydroxyethyl)-8-methyl-4,5-dihydro-3H,6H-2,2a,5a-triazaaceanthrylen-6-one] | < 1000 |
| Cc1cc(C(CO)Nc2ccc(Cl)nc2-c2cnn(C)c2)c2c(c1)c(=O)n1c3c2cnn3CCC1 (stereo not shown) [Compound 329, 10-(1-((6-chloro-2-(1-methyl-1H-pyrazol-4-yl)pyridin-3-yl)amino)-2-hydroxyethyl)-8-methyl-4,5-dihydro-3H,6H-2,2a,5a-triazaaceanthrylen-6-one] | < 1000 |
| Cc1cc(C(CO)Nc2ccc(Cl)nc2-c2cnn(C)c2C)c2c(c1)c(=O)n1c3c2cnn3CCC1 (stereo not shown) [Compound 330, 10-(1-((6-chloro-2-(1,5-dimethyl-1H-pyrazol-4-yl)pyridin-3-yl)amino)-2-hydroxyethyl)-8-methyl-4,5-dihydro-3H,6H-2,2a,5a-triazaaceanthrylen-6-one] | < 1000 |
| Cc1cc(C(CO)Nc2ccc(Cl)nc2-c2nnco2)c2c(c1)c(=O)n1c3c2cnn3CCC1 (stereo not shown) [Compound 331, 10-(1-((6-chloro-2-(1,3,4-oxadiazol-2-yl)pyridin-3-yl)amino)-2-hydroxyethyl)-8-methyl-4,5-dihydro-3H,6H-2,2a,5a-triazaaceanthrylen-6-one] | < 1000 |
| Cc1cc(C(CO)Nc2ccc(Cl)nc2-c2nnn(C)n2)c2c(c1)c(=O)n1c3c2cnn3CCC1 (stereo not shown) [Compound 332, 10-(1-((6-chloro-2-(2-methyl-2H-tetrazol-5-yl)pyridin-3-yl)amino)-2-hydroxyethyl)-8-methyl-4,5-dihydro-3H,6H-2,2a5a-triazaaceanthrylen-6-one] | < 1000 |
| Cc1cc(C(CO)Nc2ccc(Cl)nc2-c2ccc3c(c2)CN(C)C3=O)c2c(c1)c(=O)n1c3c2cnn3CCC1 (stereo not shown) [Compound 333, 10-(1-((6-chloro-2-(2-methyl-1-oxoisoindolin-5-yl)pyridin-3-yl)amino)-2-hydroxyethyl)-8-methyl-4,5-dihydro-3H,6H-2,2a,5a-triazaaceanthrylen-6-one] | < 1000 |
| CCn1ncc2c3c(C(CN4CCN(C)CC4)Nc4ccc(Cl)nc4-c4cnn(C)c4)cc(C)cc3c(=O)n(C)c21 (stereo not shown) [Compound 334, 9-(1-((6-Chloro-2-(1-methyl-1H-pyrazol-4-yl)pyridin-3-yl)amino)-2-(4-methylpiperazin-1-yl)ethyl)-3-ethyl-4,7-dimethyl-3,4-dihydro-5H-pyrazolo[3,4-c]isoquinolin-5-one] | < 1000 |
| Cc1cc(C(C)Nc2ccccc2C(=O)O)c2c(c1)c(=O)n(C)c1cncn21 (stereo not shown) [Compound I-4, 2-((1-(4,7-Dimethyl-5-oxo-4,5-dihydroimidazo[1,5-a]quinazolin-9-yl)ethyl)amino)benzoic acid] | < 1000 |
| CCc1ncn2c3c(C(C)Nc4ccccc4C(=O)O)cc(C)cc3c(=O)n(C)c12 (stereo not shown) [Compound I-5, 2-((1-(3-Ethyl-4,7-dimethyl-5-oxo-4,5-dihydroimidazo[1,5-a]quinazolin-9-yl)ethyl)amino)benzoic acid] | < 1000 |
| Cc1cc(C(C)Nc2ccccc2C(=O)O)c2c(c1)c(=O)n(C)c1c(-c3ccccn3)ncn21 (stereo not shown) [Compound I-6, 2-((1-(4,7-Dimethyl-5-oxo-3-(pyridin-2-yl)-4,5-dihydroimidazo[1,5-a]quinazolin-9-yl)ethyl)amino)benzoic acid] | < 1000 |

| SMILES | IC50 [nM] |
| --- | --- |
| Cc1cc(C(C)Nc2ccccc2C(=O)O)c2c(c1)c(=O)n(C)c1c(C)ncn21 (stereo not shown) [Compound I-7, 2-((1-(3,4,7-Trimethyl-5-oxo-4,5-dihydroimidazo[1,5-a]quinazolin-9-yl)ethyl)amino)benzoic acid] | < 1000 |
| Cc1cc(C(C)Nc2ccc(C)nc2C(=O)O)c2c(c1)c(=O)n(C)c1c(C)ncn21 (stereo not shown) [Compound I-8, 6-Methyl-3-((1-(3,4,7-trimethyl-5-oxo-4,5-dihydroimidazo[1,5-a]quinazolin-9-yl)ethyl)amino)picolinic acid] | < 1000 |
| CCc1ncn2c3c(C(C)Nc4ccccc4C(=O)O)cc(Cl)cc3c(=O)n(C)c12 (stereo not shown) [Compound I-9, 2-((1-(7-Chloro-3-ethyl-4-methyl-5-oxo-4,5-dihydroimidazo[1,5-a]quinazolin-9-yl)ethyl)amino)benzoic acid] | < 1000 |
| CC(Nc1ccccc1C(=O)O)c1cc(Cl)cc2c(=O)n(C)c3cncn3c12 (stereo not shown) [Compound I-10, 2-((1-(7-Chloro-4-methyl-5-oxo-4,5-dihydroimidazo[1,5-a]quinazolin-9-yl)ethyl)amino)benzoic acid] | < 1000 |
| Cc1ncn2c3c(C(C)Nc4ccccc4C(=O)O)cc(Cl)cc3c(=O)n(C)c12 (stereo not shown) [Compound I-11, 2-((1-(7-Chloro-3,4-dimethyl-5-oxo-4,5-dihydroimidazo[1,5-a]quinazolin-9-yl)ethyl)amino)benzoic acid] | < 1000 |
| CCn1c(=O)c2cc(Cl)cc(C(C)Nc3ccccc3C(=O)O)c2n2cncc12 (stereo not shown) [Compound I-12, 2-((1-(7-Chloro-4-ethyl-5-oxo-4,5-dihydroimidazo[1,5-a]quinazolin-9-yl)ethyl)amino)benzoic acid] | < 1000 |
| CCc1ncn2c3c(C(C)Nc4ccccc4C(=O)O)cc(Cl)cc3c(=O)n(CC)c12 (stereo not shown) [Compound I-13, 2-((1-(7-Chloro-3,4-diethyl-5-oxo-4,5-dihydroimidazo[1,5-a]quinazolin-9-yl)ethyl)amino)benzoic acid] | < 1000 |
| Cc1cc(C(C)Nc2ccccc2C(=O)O)c2c(c1)c(=O)n(C)c1nccn21 (stereo not shown) [Compound I-14, 2-((1-(4,7-Dimethyl-5-oxo-4,5-dihydroimidazo[1,2-a]quinazolin-9-yl)ethyl)amino)benzoic acid] | < 1000 |
| Cc1cc(C(C)Nc2ccccc2C(=O)O)c2c(c1)c(=O)n(C)c1ncnn21 (stereo not shown) [Compound I-15, 2-((1-(4,7-Dimethyl-5-oxo-4,5-dihydro-[1,2,4]triazolo[1,5-a]quinazolin-9-yl)ethyl)amino)benzoic acid] | < 1000 |
| Cc1cc(C(C)Nc2ccccc2C(=O)O)c2c(c1)c(=O)n(C)c1c2cnn1C (stereo not shown) [Compound I-16, 2-((1-(3,4,7-Trimethyl-5-oxo-4,5-dihydro-3H-pyrazolo[3,4-c]isoquinolin-9-yl)ethyl)amino)benzoic acid] | < 1000 |
| Cc1cc(C(C)Nc2ccc(Cl)nc2C(=O)O)c2c(c1)c(=O)n(C)c1c2cnn1C (stereo not shown) [Compound I-17, 6-Chloro-3-((1-(3,4,7-trimethyl-5-oxo-4,5-dihydro-3H-pyrazolo[3,4-c]isoquinolin-9-yl)ethyl)amino)picolinic acid] | < 1000 |
| CCn1ncc2c3c(C(C)Nc4ccccc4C(=O)O)cc(C)cc3c(=O)n(C)c21 (stereo not shown) [Compound I-18, 2-((1-(3-Ethyl-4,7-dimethyl-5-oxo-4,5-dihydro-3H-pyrazolo[3,4-c]isoquinolin-9-yl)ethyl)amino)benzoic acid] | < 1000 |
| CCn1ncc2c3c(C(C)Nc4ccc(Cl)nc4C(=O)O)cc(C)cc3c(=O)n(C)c21 (stereo not shown) [Compound I-19, 6-Chloro-3-((1-(3-ethyl-4,7-dimethyl-5-oxo-4,5-dihydro-3H-pyrazolo[3,4-c]isoquinolin-9-yl)ethyl)amino)picolinic acid] | < 1000 |
| CCn1ncc2c3c(C(C)Nc4ccc(C)nc4C(=O)O)cc(C)cc3c(=O)n(C)c21 (stereo not shown) [Compound I-20, 3-((1-(3-Ethyl-4,7-dimethyl-5-oxo-4,5-dihydro-3H-pyrazolo[3,4-c]isoquinolin-9-yl)ethyl)amino)-6-methylpicolinic acid] | < 1000 |
| CCn1c(=O)c2cc(C)cc(C(C)Nc3ccccc3C(=O)O)c2c2cnn(C)c21 (stereo not shown) [Compound I-21, 2-((1-(4-Ethyl-3,7-dimethyl-5-oxo-4,5-dihydro-3H-pyrazolo[3,4-c]isoquinolin-9-yl)ethyl)amino)benzoic acid] | < 1000 |
